Converted amounts (≈) assume the structure as drawn. Read-outs that look alike come from different tables or passages of the source.
Key:
Test in all cases: In vitro MIC, broth dilution
Assay type in all cases: cell-based
P. aeruginosa GC 2214 = details: Pseudomonas aeruginosa, GC2214
C. albicans GC 3066 = details: Candida albicans, GC3066
E. coli GC 4559 = details: Escherichia coli, GC4559
E. cloacae GC 3783 = details: Enterobacter cloacae, GC3783
E. coli GC 4560 = details: Escherichia coli, GC4560
K. pneumoniae GC 4534 = details: Klebsiella pneumoniae, GC4534
M. morganii GC 4531 = details: Morganella morganii, GC4531
E. faecalis GC 842 = details: Enterococcus faecalis, GC842
Description: (§1) The minimum inhibitory concentration (MIC), the lowest concentration of the antibiotic which inhibits growth of the test organism, is determined by the broth dilution method using Muller-Hinton II […] (Baltimore Biological Laboratories) following the recommendations of National Committee for Clinical Laboratory Standards. [Reference for the Methods for dilution antimicrobial susceptibility tests for bacteria that grow aerobically: National Committee for Clinical Laboratory Standards, 1997. Approved standard M7-A National Committee for Clinical Laboratory Standards, Wayne, Pa.] An inoculum level of 5×10^5 CFU/ml, and a range of antibiotic concentrations (64-0.06 μg/ml) is used. The MIC is determined after the microtiter plates are incubated for 18 hours at 35° C. in an ambient air incubator. The test organisms comprise a spectrum of gram-positive bacteria including Staphylococcus sp., Streptococcus sp. and Enterococcus sp. These organisms include recent clinical isolates that are resistant to methicillin, penicillin and vancomycin.

S. aureus GC 2216 = details: Staphylococcus aureus, GC2216
Description: as §1

E. faecalis GC 4555 = details: Enterococcus faecalis, GC4555
Description: as §1

CNS GC 4547 = tested on: CNS GC 4547
Description: as §1

CNS GC 4537 = tested on: CNS GC 4537
Description: as §1

E. faecalis GC 2242 = details: Enterococcus faecalis, GC2242
Description: as §1

S. aureus GC 4536 = details: Staphylococcus aureus, GC4536
Description: as §1

S. aureus GC 1131 = details: Staphylococcus aureus, GC1131
Description: as §1

CNS GC 4538 = tested on: CNS GC 4538
Description: as §1

E. coli GC 2203 = details: Escherichia coli, GC2203
E. coli GC 3226 = details: Escherichia coli, GC3226
P. aeruginosa GC 4532 = details: Pseudomonas aeruginosa, GC4532
S. marcescens GC 4077 = details: Serratia marcescens, GC4077
[1] = P. aeruginosa GC 2214, read-out: MIC
[2] = C. albicans GC 3066, read-out: MIC
[3] = E. cloacae GC 3783, read-out: MIC
[4] = K. pneumoniae GC 4534, read-out: MIC
[5] = M. morganii GC 4531, read-out: MIC
[6] = E. faecalis GC 842, read-out: MIC
[7] = S. aureus GC 2216, read-out: MIC
[8] = E. faecalis GC 4555, read-out: MIC
[9] = E. faecalis GC 2242, read-out: MIC
[10] = S. aureus GC 4536, read-out: MIC
[11] = S. aureus GC 1131, read-out: MIC
[12] = P. aeruginosa GC 4532, read-out: MIC
[13] = S. marcescens GC 4077, read-out: MIC

Row | SMILES | MIC (P. aeruginosa GC 2214; [1]) [µg/mL] | MIC (C. albicans GC 3066; [2]) [µg/mL] | MIC (E. coli GC 4559; E. coli GC 4559, read-out: MIC) [µg/mL] | MIC (E. cloacae GC 3783; [3]) [µg/mL] | MIC (E. coli GC 4560; E. coli GC 4560, read-out: MIC) [µg/mL] | MIC (K. pneumoniae GC 4534; [4]) [µg/mL] | MIC (M. morganii GC 4531; [5]) [µg/mL] | MIC (E. faecalis GC 842; [6]) [µg/mL] | MIC (S. aureus GC 2216; [7]) [µg/mL] | MIC (E. faecalis GC 4555; [8]) [µg/mL] | MIC (CNS GC 4547; CNS GC 4547, read-out: MIC) [µg/mL] | MIC (CNS GC 4537; CNS GC 4537, read-out: MIC) [µg/mL] | MIC (E. faecalis GC 2242; [9]) [µg/mL] | MIC (S. aureus GC 4536; [10]) [µg/mL] | MIC (S. aureus GC 1131; [11]) [µg/mL] | MIC (CNS GC 4538; CNS GC 4538, read-out: MIC) [µg/mL] | MIC (E. coli GC 2203; E. coli GC 2203, read-out: MIC) [µg/mL] | MIC (E. coli GC 3226; E. coli GC 3226, read-out: MIC) [µg/mL] | MIC (P. aeruginosa GC 4532; [12]) [µg/mL] | MIC (S. marcescens GC 4077; [13]) [µg/mL] | further results
1 | COc1ccc(Cn2c(=O)ccn([C@@H]3OC([C@H](O)[C@H](NCCCNC(=O)[C@@H](NC(=O)OCc4ccccc4)C(C)O)C(=O)O)[C@@H](O)C3O[Si](C)(C)C(C)(C)C)c2=O)cc1 (stereo in doubt) [Example 46, (5S,12S)-12-[(R)-[(3R,4R,5R)-4-{[tert-butyl(dimethyl)silyl]oxy}-3-hydroxy-5-(3-(4-methoxy-benzyl)-2,4-dioxo-3,4-dihydro-1(2H)-pyrimidinyl)tetrahydro-2-furanyl](hydroxy)methyl]-5-[(1S)-1-hydroxyethyl]-3,6-dioxo-1-phenyl-2-oxa-4,7,11-triazatridecan-13-oic acid] | 128 (≈ 152 µM) | 128 (≈ 152 µM) | > 128 | > 128 | 128 (≈ 152 µM) | > 128 | 128 (≈ 152 µM) | 128 (≈ 152 µM) | > 128 | 128 (≈ 152 µM) | > 128 | > 128 | 128 (≈ 152 µM) | > 128 | > 128 | > 128 | > 128 | > 128 | 128 (≈ 152 µM) | > 128 | 
2 | CCCCCCCCCCCCCC(=O)OC(C)[C@H](NC(=O)OCc1ccccc1)C(=O)NCCCNC(C(=O)OCC)C(O)C1O[C@@H](n2ccc(=O)[nH]c2=O)[C@H](OC(C)=O)[C@@H]1OC(C)=O (stereo in doubt) [Example 58, Ethyl (5S)-12-[(R)-[(2R,3R,4R,5R)-3,4-bis(acetyloxy)-5-(2,4-dioxo-3,4-dihydropyrimidin-1(2 h)-yl)tetrahydrofuran-2-yl](hydroxy)methyl]-3,6-dioxo-1-phenyl-5-[(1S)-1-(tetradecanoyloxy)ethyl]-2-oxa-4,7,11-triazatridecan-13-oate] | > 128 | > 128 | > 128 | > 128 | > 128 | > 128 | > 128 | > 128 | > 128 | > 128 | > 128 | > 128 | > 128 | > 128 | > 128 | > 128 | > 128 | > 128 | > 128 | > 128 | 
3 | COc1ccc(Cn2c(=O)ccn([C@@H]3OC([C@H](O)[C@H](NCCCNC(=O)[C@@H](NC(=O)OCc4ccccc4)[C@@H](O)C(C)C)C(=O)OC(C)(C)C)[C@@H](O[Si](C)(C)C(C)(C)C)[C@H]3O[Si](C)(C)C(C)(C)C)c2=O)cc1 (stereo partly drawn) [Example 1, tert-Butyl (5S,12S)-12-[(R)-[(3R,4R,5R)-3,4-bis{[tert-butyl(dimethyl)silyl]oxy}-5-(3-(4-methoxybenzyl)-2,4-dioxo-3,4-dihydro-1(2H)-pyrimidinyl)tetrahydro-2-furanyl](hydroxy)methyl]-5-[(1S)-1-hydroxy-2-methylpropyl]-3,6-dioxo-1-phenyl-2-oxa-4,7,11-triazatridecan-13-oate] |  |  |  |  |  |  |  |  |  |  |  |  |  |  |  |  |  |  |  |  | MIC (P. aeruginosa GC 2214): 128 µg/mL (≈ 123 µM); MIC (C. albicans GC 3066): > 128 µg/mL; MIC (E. coli GC 4559): > 128 µg/mL; MIC (E. cloacae GC 3783): > 128 µg/mL; MIC (E. coli GC 4560): > 128 µg/mL; MIC (K. pneumoniae GC 4534): > 128 µg/mL; MIC (M. morganii GC 4531): > 128 µg/mL; MIC (E. faecalis GC 842): > 128 µg/mL; MIC (S. aureus GC 2216): > 128 µg/mL; MIC (E. faecalis GC 4555): 128 µg/mL (≈ 123 µM); MIC (CNS GC 4547): > 128 µg/mL; MIC (CNS GC 4537): > 128 µg/mL; MIC (E. faecalis GC 2242): 128 µg/mL (≈ 123 µM); MIC (S. aureus GC 4536): > 128 µg/mL; MIC (S. aureus GC 1131): > 128 µg/mL; MIC (CNS GC 4538): > 128 µg/mL; MIC (E. coli GC 2203): > 128 µg/mL; MIC (E. coli GC 3226): > 128 µg/mL; MIC (P. aeruginosa GC 4532): 128 µg/mL (≈ 123 µM); MIC (S. marcescens GC 4077): > 128 µg/mL
4 | COc1ccc(Cn2c(=O)ccn([C@@H]3OC([C@H](O)[C@H](NCCCNC(=O)[C@@H](N)[C@@H](O)C(C)C)C(=O)OC(C)(C)C)[C@@H](O[Si](C)(C)C(C)(C)C)[C@H]3O[Si](C)(C)C(C)(C)C)c2=O)cc1 (stereo partly drawn) [Example 2, tert-Butyl (2S,3R)-2-[(3-{[(2S,3S)-2-amino-3-hydroxy-4-methylpentanoyl]amino}propyl)amino]-3-[(3R,4R,5R)-3,4-bis{[tert-butyl(dimethyl)silyl]oxy}-5-(3-(4-methoxybenzyl)-2,4-dioxo-3,4-dihydro-1(2H)-pyrimidinyl)tetrahydro-2-furanyl]-3-hydroxypropanoate] | > 128 | > 128 | > 128 | > 128 | > 128 | > 128 | > 128 | 8 (≈ 8.81 µM) | 4 (≈ 4.4 µM) | 4 (≈ 4.4 µM) | 16 (≈ 17.6 µM) | 4 (≈ 4.4 µM) | 4 (≈ 4.4 µM) | 16 (≈ 17.6 µM) | 4 (≈ 4.4 µM) | 4 (≈ 4.4 µM) | > 128 | > 128 | > 128 | > 128 | 
5 | COc1ccc(Cn2c(=O)ccn([C@@H]3OC([C@H](O)[C@H](NCCCNC(=O)[C@H](CC(C)C)NC(=O)OCc4ccccc4)C(=O)OC(C)(C)C)[C@@H](O[Si](C)(C)C(C)(C)C)[C@H]3O[Si](C)(C)C(C)(C)C)c2=O)cc1 (stereo partly drawn) [Example 4, tert-Butyl (5S,12S)-12-[(R)-[(3R,4R,5R)-3,4-bis{[tert-butyl(dimethyl)silyl]oxy}-5-(3-(4-methoxybenzyl)-2,4-dioxo-3,4-dihydro-1(2H)-pyrimidinyl)tetrahydro-2-furanyl](hydroxy)methyl]-5-isobutyl-3,6-dioxo-1-phenyl-2-oxa-4,7,11-triazatridecan-13-oate] | 128 (≈ 125 µM) | > 128 | > 128 | > 128 | > 128 | > 128 | > 128 | > 128 | > 128 | > 128 | > 128 | > 128 | 128 (≈ 125 µM) | > 128 | > 128 | > 128 | > 128 | > 128 | > 128 | > 128 | 
